Tests used:
[1] = tested on: APOE*3-Leiden transgenic (E3L) mice; experiment: Lipid content of liver (TLC) in E3L mice; assay type: in vivo, mouse
Text: (§1) E3L mice were fed a high cholesterol (1% w/w) diet (HC diet) for a period of four weeks. Animals were then matched based on their plasma cholesterol levels, and were divided into five groups, each of which was maintained on an HC diet.
A reduction of Red Oil O staining in liver generally indicates reduced liver lipid content. We therefore quantified levels of lipids in livers from each animal, as described in Havekes et al. (1987), Biochem. J., 247:739-746; Delsing et al. (2005), J. Cardiovasc. Pharmacol., 45:53-60; and Post et al. (2004), ATVB, 24:768-774. Liver tissue homogenates were prepared. Lipids were extracted, dried under nitrogen, dissolved in chloroform, and spotted onto a channeled 20×20 cm silica gel thin layer chromatography (TLC) plate. Lipids were then separated, TLC plates were warmed up to visualize bands, and bands were quantified using an internal standard as reference.

[2] = tested on: APOE*3-Leiden transgenic (E3L) mice; experiment: Total plasma triglyceride levels in E3L mice; assay type: in vivo, mouse
Text: (§2) We assessed the effect of inhibiting FAAH activity on body weight, body fat, triglyceride levels, cholesterol levels in APOE*3-Leiden transgenic (E3L) mice, an animal model of hyperlipidemia. […] See van Vlijmen et al. (1994), J. Clin Invest., 93:1403-1410. Indeed, upon high fat and cholesterol feeding, these mice develop various stages of atherosclerotic lesions depending on plasma total cholesterol levels and resembling those found in humans. See Groot et al. (1996), Arterioscler. Thromb. Vasc. Biol., 16:926-933; Versch ren et al. (2005), Arterioscler. Thromb. Vasc Biol., 25:161-167; and Lutgens et al. (1999), Circulation; 99(2):276-283). Thus, the E3L mouse is a suitable model for the investigation of the efficacy of anti-atherosclerotic drugs.
as §1
(§3) Blood samples were collected at days 0, 14, and 28 of the treatment period. At the end of the treatment period, animals were sacrificed, and various tissues and organs were analyzed. Unless otherwise indicated, values are mean±standard deviation (SD).

[3] = tested on: APOE*3-Leiden transgenic (E3L) mice; experiment: Total plasma cholesterol in E3L mice; assay type: in vivo, mouse
Text: as §2, §1, §3

[4] = tested on: APOE*3-Leiden transgenic (E3L) mice; experiment: Organ and tissue weights in E3L mice on high cholesterol diet
Text: as §2, §1, §3

[5] = tested on: APOE*3-Leiden transgenic (E3L) mice; experiment: Plasma alanine aminotransferase (ALAT) activity in E3L mice; assay type: in vivo, mouse; details: day 28
Method: as §1
Levels of plasma alanine aminotransferase (ALAT) were determined on day 28 (table 7). Plasma ALAT is a measure of hepatic stress and increases in plasma ALAT levels are often associated with liver damage. […] Thus, a reduction in plasma ALAT levels is associated with improved liver function.

[6] = tested on: APOE*3-Leiden transgenic (E3L) mice; experiment: Oil Red O staining of liver sections (steatosis) in E3L mice; assay type: in vivo, mouse
Text: as §1
In order to examine cellular stress in the liver due to lipid storage (steatosis), we stained frozen liver tissue sections with Oil Red O a fat-soluble diazo dye used to stain for lipids. Digital photomicrographs of liver cross sections were taken for each individual animal (magnification: 20 fold). […]

[7] = tested on: APOE*3-Leiden transgenic (E3L) mice; experiment: Body weight in E3L mice on high cholesterol diet; assay type: in vivo, mouse
Text: as §2, §1

[8] = tested on: APOE*3-Leiden transgenic (E3L) mice; experiment: Food intake per animal per day in E3L mice; assay type: in vivo, mouse
Text: as §2, §1

[9] = tested on: APOE*3-Leiden transgenic (E3L) mice; experiment: Plasma adiponectin ELISA in E3L mice; assay type: in vivo, mouse
Text: as §1
We determined plasma adiponectin levels after a four hour fasting period at 0, 14, 28 days, using a mouse-specific adiponectin/Acrp30 ELISA (kit number MRP300 from R&D Systems, Minneapolis, Minn.).

[10] = tested on: APOE*3-Leiden transgenic (E3L) mice; experiment: Plasma lipoprotein profiles (size fractionation of pooled plasma) in E3L mice; assay type: in vivo, mouse; details: day 28, FIG. 1
Method: as §1
Lipoprotein profiles were determined in pooled plasma from day 28, as described in Verschuren et al. (2005), Arterioscler. Thromb. Vasc Biol., 25:161-167. An equal amount of plasma per animal was used to prepare a plasma pool for each group. Plasma lipoproteins in each plasma pool were separated by size fractionation. Typically, VLDL, IDL/LDL and HDL lipoproteins are eluted in fractions 4-8, fractions 11-16 and fractions 17-20, respectively.

[11] = tested on: APOE*3-Leiden transgenic (E3L) mice; experiment: Plasma leptin ELISA in E3L mice; assay type: in vivo, mouse
Text: as §1
Accordingly, we quantified plasma leptin levels after a four hour fasting period at treatment time points 0, 14, and 28 days using a mouse-specific leptin ELISA or (kit number MOB00 from R&D Systems, Minneapolis, Minn.) according to the guidelines and protocol specified by the manufacturer.

[12] = tested on: APOE*3-Leiden transgenic (E3L) mice; experiment: Plasma ketone body (D-3-hydroxybutyrate) levels in E3L mice; assay type: in vivo, mouse
Text: as §1
We quantified plasma D-3-hydroxybutyrate (b-HBA; ketone bodies) levels were quantified in plasma samples obtained after a 4-hour fasting period at time points t=0, t=2, and t=4 weeks using kits #2940 (b-HBA reagent set) and #2947 (b-HBA control set)) according to the guidelines and protocol specified by the manufacturer (Instruchemie, Delfzijl, The Netherlands).

[13] = E3L mice, HC diet, end of four-week treatment, mean ± SD

With CC(C)OC(=O)C(C)(C)Oc1ccc(C(=O)c2ccc(Cl)cc2)cc1 [Fenofibrate, fenofibrate] the “Lipid Content of Liver: Cholesterol Esters” value ([1]; end of four-week treatment) was 44 ± 6, the “Lipid Content of Liver: Free Cholesterol” value ([1]; end of four-week treatment) was 21 ± 2 and the “Total Plasma Triglyceride Levels” value ([2]; day 0) was 1.6 ± 0.4 mM. The “Total Plasma Triglyceride Levels” value ([2]; day 14) was “^#*0.7 ± 0.2 mM”, the “Total Plasma Triglyceride Levels” value ([2]; day 28) was “^#*0.7 ± 0.2 mM” and the “Total Plasma Cholesterol” value ([3]; day 0) was 13.6 ± 4.2 mM. For the same compound, the “Total Plasma Cholesterol” value ([3]; day 14) was “*6.5 ± 1.0 mM”, the “Total Plasma Cholesterol” value ([3]; day 28) was “*6.2 ± 1.3 mM” and the “Organ and Tissue Weights: Fat (gonadal fat)” value [4, 13] was 0.48 ± 0.14 g. For the same compound, the “Organ and Tissue Weights: Heart” value [4, 13] was 0.14 ± 0.02 g, the “Organ and Tissue Weights: Liver” value [4, 13] was “^#1.77 ± 0.28^ g” and the “Organ and Tissue Weights: Lung” value [4, 13] was 0.21 ± 0.05 g. The “liver weight, in words” value ([4]; relative to its control group) was “significant increase” and the “Plasma Alanine Amino Transferase Activity” value [5] was 112.5 ± 10.4 U/L.
CCCCCCCC/C=C\CCCCCCCC(=O)NCCO [OEA, oleoylethanolamide] was tested, and the “steatotic (Oil Red O) staining in liver, in words” value ([6]; compared to the control vehicle group) was “small, but significant reduction”, the “Oil Red O Staining in Liver, Mild-Severe (above 115 relative units)” value ([6]; end of four-week treatment) was “*36 ± 5 % of cross-sectional area” and the “Oil Red O Staining in Liver, Severe (above 175 relative units)” value ([6]; end of four-week treatment) was “*8 ± 2 % of cross-sectional area”. The “body weights, in words” value ([7]; last time point (4 weeks), within group) was “significantly reduced”, the “Body Weight” value ([7]; week 0) was 22.3 ± 1.3 g and the “Body Weight” value ([7]; week 0.5) was 22.5 ± 1.0 g. For the same compound, the “Body Weight” value ([7]; week 1) was 22.6 ± 1.0 g, the “Body Weight” value ([7]; week 1.5) was 21.8 ± 1.1 g and the “Body Weight” value ([7]; week 2) was 21.9 ± 1.2 g. The “Body Weight” value ([7]; week 2.5) was 21.9 ± 1.3 g, the “Body Weight” value ([7]; week 3) was “*21.6 ± 1.1 g” and the “Body Weight” value ([7]; week 3.5) was “*21.3 ± 1.2 g”. The “Body Weight” value ([7]; week 4) was “*21.4 ± 1.2 g”, the “Food Intake Per Animal Per Day” value ([8]; interval 0-0.5 weeks) was 2.5 ± 0.05 g and the “Food Intake Per Animal Per Day” value ([8]; interval 0.5-1.0 weeks) was 2.3 ± 0.04 g. For the same compound, the “Food Intake Per Animal Per Day” value ([8]; interval 1.0-1.5 weeks) was 2.4 ± 0.1 g, the “Food Intake Per Animal Per Day” value ([8]; interval 1.5-2.0 weeks) was 2.4 ± 0.1 g and the “Food Intake Per Animal Per Day” value ([8]; interval 2.0-2.5 weeks) was 2.3 ± 0.1 g. The “Food Intake Per Animal Per Day” value ([8]; interval 2.5-3.0 weeks) was 2.3 ± 0.05 g, the “Food Intake Per Animal Per Day” value ([8]; interval 3.0-3.5 weeks) was 2.3 ± 0.1 g and the “Food Intake Per Animal Per Day” value ([8]; interval 3.5-4.0 weeks) was “*2.0 ± 0.1 g”. The “Food Intake Per Animal Per Day” value ([8]; interval run-in) was 2.5 ± 0.5 g, the “food intake, in words” value ([8]; last time point) was “slight, but significant, decrease” and the Plasma Adiponectin Levels ([9]; day 0, four hour fasting) was 12.9 ± 2.8 µg/mL. For the same compound, the Plasma Adiponectin Levels ([9]; day 14, four hour fasting) was 11.3 ± 3.5 µg/mL, the Plasma Adiponectin Levels ([9]; day 28, four hour fasting) was 11.4 ± 2 µg/mL and the “liver cholesterol esters (CE), in words” value ([1]; compared to the oral vehicle group) was “significantly increased”. The “Lipid Content of Liver: Cholesterol Esters” value ([1]; end of four-week treatment) was “^#61 ± 7 ^”, the “Lipid Content of Liver: Free Cholesterol” value ([1]; end of four-week treatment) was 21 ± 2 and the “Lipid Content of Liver: Triglycerides” value ([1]; end of four-week treatment) was 94 ± 11. For the same compound, the “IDL/LDL particle size, in words” value [10] was “slight shift toward larger IDL/LDL particles”, the “VLDL fraction of plasma lipoprotein profile, in words” value [10] was “increase” and the “Total Plasma Triglyceride Levels” value ([2]; day 0) was 1.5 ± 0.4 mM. For the same compound, the “Total Plasma Triglyceride Levels” value ([2]; day 14) was 1.7 ± 0.6 mM, the “Total Plasma Triglyceride Levels” value ([2]; day 28) was “*1.3 ± 0.3 mM” and the “total plasma triglyceride levels, in words” value ([2]; relative to respective control group) was “slightly decreased”. For the same compound, the “Total Plasma Cholesterol” value ([3]; day 0) was 13.9 ± 3.4 mM, the “Total Plasma Cholesterol” value ([3]; day 14) was “^#16.0 ± 2.9 mM” and the “Total Plasma Cholesterol” value ([3]; day 28) was “^#15.8 ± 2.7 mM”. The “total plasma cholesterol levels, in words” value ([3]; days 14 and 28, relative to respective control group) was “slightly and significantly increased”, the “plasma leptin levels, in words” value ([11]; at 14 days, relative to the oral vehicle control group) was “lower” and the “Plasma Leptin Levels” value ([11]; day 0, four hour fasting) was 4.7 ± 2.3 ng/mL. The “Plasma Leptin Levels” value ([11]; day 14, four hour fasting) was “^#7.3 ± 3.1^ ng/ml”, the “Plasma Leptin Levels” value ([11]; day 28, four hour fasting) was 6.1 ± 4.6 ng/mL and the “plasma HB levels, in words” value ([12]; at 28 days, compared to the oral vehicle control group) was “significantly lower”. For the same compound, the “Plasma Ketone Body (HB) levels” value ([12]; day 0, 4-hour fasting) was 0.79 ± 0.19 mM, the “Plasma Ketone Body (HB) levels” value ([12]; day 14, 4-hour fasting) was 0.23 ± 0.09 mM and the “Plasma Ketone Body (HB) levels” value ([12]; day 28, 4-hour fasting) was “^#0.38 ± 0.10^ mM”. The “Organ and Tissue Weights: Fat (gonadal fat)” value [4, 13] was “*0.24 ± 0.06 g”, the “Organ and Tissue Weights: Brain” value ([4]; mouse, in vivo) was 0.44 ± 0.02 g and the “Organ and Tissue Weights: Heart” value ([4]; mouse, in vivo) was 0.14 ± 0.01 g. For the same compound, the “Organ and Tissue Weights: Liver” value ([4]; mouse, in vivo) was 0.91 ± 0.16 g, the “Organ and Tissue Weights: Lung” value ([4]; mouse, in vivo) was 0.19 ± 0.02 g and the “gonadal fat weight, in words” value ([4]; relative to the oral vehicle group) was “significantly lower”. For the same compound, the “Plasma Alanine Amino Transferase Activity” value [5] was “*68.6 ± 17.6 U/L”.

From US20090099240A1, “METHODS FOR TREATING ENERGY METABOLISM DISORDERS BY INHIBITING FATTY ACID AMIDE HYDROLASE ACTIVITY” (N.V. Organon, priority 2006, published 2009)
